What was measured:
Type in all cases: ADME, organism-based
[1] = Clearance in Homo sapiens (human) at 150 mg; details: in vivo
[2] = Volume of distribution in Homo sapiens (human) at 150 mg; details: in vivo
[3] = Mean residence time in Homo sapiens (human) at 150 mg; details: in vivo
[4] = Elimination half life in Homo sapiens (human) at 150 mg; details: in vivo, read-out: beta t1/2 (converted)
[5] = AUC (0 to infinity) in Homo sapiens (human) at 150 mg; set-up: dose 150 mg, time infinity; details: plasma
[6] = species: Homo sapiens; assay: Dose normalized AUC in Homo sapiens (human) at 150 mg; details: in vivo
[7] = Cmax in Homo sapiens (human) at 150 mg; set-up: dose 150 mg; details: in vivo
[8] = Volume of distribution in Macaca mulatta (Rhesus monkey) at 4 mg/kg, iv; set-up: dose 4 mg/kg, route intravenous; details: in vivo
[9] = Mean residence time in Macaca mulatta (Rhesus monkey) at 4 mg/kg, iv; set-up: dose 4 mg/kg, route intravenous; details: in vivo
[10] = test system: Rhesus monkey; assay: Dose normalized AUC in Macaca mulatta (Rhesus monkey) at 4 mg/kg, iv; set-up: dose 4 mg/kg, route intravenous; details: in vivo
[11] = Elimination half life in Macaca mulatta (Rhesus monkey) at 4 mg/kg, iv; set-up: dose 4 mg/kg, route intravenous; details: in vivo, read-out: beta t1/2 (converted)
[12] = test system: Rhesus monkey; assay: Volume of distribution in Macaca mulatta (Rhesus monkey) at 7.5 mg/kg, administered intramuscularly; set-up: dose 7.5 mg/kg, route intramuscular; details: in vivo, im
[13] = Mean residence time in Macaca mulatta (Rhesus monkey) at 7.5 mg/kg, administered intramuscularly; set-up: dose 7.5 mg/kg, route intramuscular; details: in vivo, im
[14] = Elimination half life in Macaca mulatta (Rhesus monkey) at 7.5 mg/kg, administered intramuscularly; set-up: dose 7.5 mg/kg, route intramuscular; details: in vivo, im, read-out: beta t1/2 (converted)
[15] = test system: Rhesus monkey; assay: Dose normalized AUC in Macaca mulatta (Rhesus monkey) at 7.5 mg/kg, administered intramuscularly; set-up: dose 7.5 mg/kg, route intramuscular; details: in vivo, im
[16] = Tmax in Macaca mulatta (Rhesus monkey) at 7.5 mg/kg, administered intramuscularly; set-up: dose 7.5 mg/kg, route intramuscular; details: in vivo, im
[17] = Cmax in Macaca mulatta (Rhesus monkey) at 7.5 mg/kg, administered intramuscularly; set-up: dose 7.5 mg/kg, route intramuscular; details: in vivo, im
[18] = Mean residence time in Macaca mulatta (Rhesus monkey) at 50 mg/kg, po; set-up: dose 50 mg/kg, route oral; details: in vivo
[19] = Elimination half life in Macaca mulatta (Rhesus monkey) at 50 mg/kg, po; set-up: dose 50 mg/kg, route oral; details: in vivo, read-out: beta t1/2 (converted)
[20] = Elimination half life in Rattus norvegicus Sprague-Dawley (rat) at 30 mg/kg, administered intramuscularly; set-up: dose 30 mg/kg, route intramuscular; details: in vivo, im, read-out: beta t1/2 (converted)
[21] = test system: Rattus norvegicus; assay: Dose normalized AUC in Rattus norvegicus Sprague-Dawley (rat) at 30 mg/kg, administered intramuscularly; set-up: dose 30 mg/kg, route intramuscular; details: in vivo, im
[22] = Tmax in Rattus norvegicus Sprague-Dawley (rat) at 30 mg/kg, administered intramuscularly; set-up: dose 30 mg/kg, route intramuscular; details: in vivo, im
[23] = Cmax in Rattus norvegicus Sprague-Dawley (rat) at 30 mg/kg, administered intramuscularly; set-up: dose 30 mg/kg, route intramuscular; details: in vivo, im
[24] = test system: Rattus norvegicus; assay: Volume of distribution in Rattus norvegicus Sprague-Dawley (rat) at 17.5 mg/kg, administered intramuscularly; set-up: dose 17.5 mg/kg, route intramuscular; details: in vivo, im
[25] = Elimination half life in Rattus norvegicus Sprague-Dawley (rat) at 17.5 mg/kg, administered intramuscularly; set-up: dose 17.5 mg/kg, route intramuscular; details: in vivo, im, read-out: beta t1/2 (converted)
[26] = test system: Rattus norvegicus; assay: Dose normalized AUC in Rattus norvegicus Sprague-Dawley (rat) at 17.5 mg/kg, administered intramuscularly; set-up: dose 17.5 mg/kg, route intramuscular; details: in vivo, im
[27] = Tmax in Rattus norvegicus Sprague-Dawley (rat) at 17.5 mg/kg, administered intramuscularly; set-up: dose 17.5 mg/kg, route intramuscular; details: in vivo, im
[28] = Cmax in Rattus norvegicus Sprague-Dawley (rat) at 17.5 mg/kg, administered intramuscularly; set-up: dose 17.5 mg/kg, route intramuscular; details: in vivo, im
[29] = test system: Rattus norvegicus; assay: Volume of distribution in Rattus norvegicus Sprague-Dawley (rat) at 9 mg/kg, administered intramuscularly; set-up: dose 9 mg/kg, route intramuscular; details: in vivo, im
[30] = Mean residence time in Rattus norvegicus Sprague-Dawley (rat) at 9 mg/kg, administered intramuscularly; set-up: dose 9 mg/kg, route intramuscular; details: in vivo, im
[31] = Elimination half life in Rattus norvegicus Sprague-Dawley (rat) at 9 mg/kg, administered intramuscularly; set-up: dose 9 mg/kg, route intramuscular; details: in vivo, im, read-out: beta t1/2 (converted)
[32] = test system: Rattus norvegicus; assay: Dose normalized AUC in Rattus norvegicus Sprague-Dawley (rat) at 9 mg/kg, administered intramuscularly; set-up: dose 9 mg/kg, route intramuscular; details: in vivo, im
[33] = Tmax in Rattus norvegicus Sprague-Dawley (rat) at 9 mg/kg, administered intramuscularly; set-up: dose 9 mg/kg, route intramuscular; details: in vivo, im
[34] = Cmax in Rattus norvegicus Sprague-Dawley (rat) at 9 mg/kg, administered intramuscularly; set-up: dose 9 mg/kg, route intramuscular; details: in vivo, im
[35] = test system: Rhesus monkey; assay: Dose normalized AUC in Macaca mulatta (Rhesus monkey) at 50 mg/kg, po; set-up: dose 50 mg/kg, route oral; details: in vivo
[36] = Tmax in Macaca mulatta (Rhesus monkey) at 50 mg/kg, po; set-up: dose 50 mg/kg, route oral; details: in vivo
[37] = Cmax in Macaca mulatta (Rhesus monkey) at 50 mg/kg, po; set-up: dose 50 mg/kg, route oral; details: in vivo
[38] = test system: Rattus norvegicus; assay: Volume of distribution in Rattus norvegicus Sprague-Dawley (rat) at 9 mg/kg, po; set-up: dose 9 mg/kg, route oral; details: in vivo
[39] = Mean residence time in Rattus norvegicus Sprague-Dawley (rat) at 9 mg/kg, po; set-up: dose 9 mg/kg, route oral; details: in vivo
[40] = test system: Rattus norvegicus; assay: Dose normalized AUC in Rattus norvegicus Sprague-Dawley (rat) at 9 mg/kg, po; set-up: dose 9 mg/kg, route oral; details: in vivo
[41] = Tmax in Rattus norvegicus Sprague-Dawley (rat) at 9 mg/kg, po; set-up: dose 9 mg/kg, route oral; details: in vivo
[42] = Cmax in Rattus norvegicus Sprague-Dawley (rat) at 9 mg/kg, po; set-up: dose 9 mg/kg, route oral; details: in vivo
[43] = Volume of distribution in Rattus norvegicus Sprague-Dawley (rat) at 2 mg/kg, iv; set-up: dose 2 mg/kg, route intravenous; details: in vivo
[44] = Mean residence time in Rattus norvegicus Sprague-Dawley (rat) at 2 mg/kg, iv; set-up: dose 2 mg/kg, route intravenous; details: in vivo
[45] = Elimination half life in Rattus norvegicus Sprague-Dawley (rat) at 2 mg/kg, iv; set-up: dose 2 mg/kg, route intravenous; details: in vivo, read-out: beta t1/2 (converted)
[46] = test system: Rattus norvegicus; assay: Dose normalized AUC in Rattus norvegicus Sprague-Dawley (rat) at 2 mg/kg, iv; set-up: dose 2 mg/kg, route intravenous; details: in vivo
[47] = test system: Rattus norvegicus; assay: Volume of distribution in Rattus norvegicus Sprague-Dawley (rat) at 30 mg/kg, po; set-up: dose 30 mg/kg, route oral; details: in vivo
[48] = Mean residence time in Rattus norvegicus Sprague-Dawley (rat) at 30 mg/kg, po; set-up: dose 30 mg/kg, route oral; details: in vivo
[49] = test system: Rattus norvegicus; assay: Dose normalized AUC in Rattus norvegicus Sprague-Dawley (rat) at 30 mg/kg, po; set-up: dose 30 mg/kg, route oral; details: in vivo
[50] = Tmax in Rattus norvegicus Sprague-Dawley (rat) at 30 mg/kg, po; set-up: dose 30 mg/kg, route oral; details: in vivo
[51] = test system: Rattus norvegicus; assay: Volume of distribution in Rattus norvegicus Sprague-Dawley (rat) at 17.5 mg/kg, po; set-up: dose 17.5 mg/kg, route oral; details: in vivo
[52] = Cmax in Rattus norvegicus Sprague-Dawley (rat) at 30 mg/kg, po; set-up: dose 30 mg/kg, route oral; details: in vivo
[53] = Elimination half life in Rattus norvegicus Sprague-Dawley (rat) at 17.5 mg/kg, po; set-up: dose 17.5 mg/kg, route oral; details: in vivo, read-out: beta t1/2 (converted)
[54] = Mean residence time in Rattus norvegicus Sprague-Dawley (rat) at 17.5 mg/kg, po; set-up: dose 17.5 mg/kg, route oral; details: in vivo
[55] = test system: Rattus norvegicus; assay: Dose normalized AUC in Rattus norvegicus Sprague-Dawley (rat) at 17.5 mg/kg, po; set-up: dose 17.5 mg/kg, route oral; details: in vivo
[56] = Tmax in Rattus norvegicus Sprague-Dawley (rat) at 17.5 mg/kg, po; set-up: dose 17.5 mg/kg, route oral; details: in vivo
[57] = Cmax in Rattus norvegicus Sprague-Dawley (rat) at 17.5 mg/kg, po; set-up: dose 17.5 mg/kg, route oral; details: in vivo
[58] = test system: Rattus norvegicus; assay: Volume of distribution in Rattus norvegicus Sprague-Dawley (rat) at 30 mg/kg, administered intramuscularly; set-up: dose 30 mg/kg, route intramuscular; details: in vivo, im
[59] = Mean residence time in Rattus norvegicus Sprague-Dawley (rat) at 30 mg/kg, administered intramuscularly; set-up: dose 30 mg/kg, route intramuscular; details: in vivo, im

## CCO[C@H]1O[C@@H]2O[C@@]3(C)CC[C@H]4[C@H](C)CC[C@@H]([C@H]1C)[C@@]24OO3 [ARTEMOTIL]
[1]
  clearance: 13.3 mL/min/kg
[2]
  Vd: 36.2 L/kg
[3]
  MRT: 47.4 h
[4]
  half-life: 30.2 h
[5]
  AUC(0-inf): 2330 ng·h/mL
[6]
  AUC/dose: 1315.7 ng·h/mL
[7]
  Cmax: 49.8 ng/mL
[8]
  Vd: 8.6 L/kg
[9]
  MRT: 2.8 h
[10]
  AUC/dose: 435.8 ng·h/mL
[11]
  half-life: 2.6 h
[12]
  Vd: 197.2 L/kg
[13]
  MRT: 26.7 h
[14]
  half-life: 19.1 h
[15]
  AUC/dose: 142.2 ng·h/mL
[16]
  Tmax: 1.83 h
[17]
  Cmax: 45.2 ng/mL
[18]
  MRT: 5.8 h
[19]
  half-life: 4.4 h
[20]
  half-life: 25.2 h
[21]
  AUC/dose: 19.4 ng·h/mL
[22]
  Tmax: 0.167 h
[23]
  Cmax: 27.8 ng/mL
[24]
  Vd: 198.7 L/kg
[25]
  half-life: 27.5 h
[26]
  AUC/dose: 197.1 ng·h/mL
[27]
  Tmax: 0.5 h
[28]
  Cmax: 136 ng/mL
[29]
  Vd: 213.2 L/kg
[30]
  MRT: 40.8 h
[31]
  half-life: 28.5 h
[32]
  AUC/dose: 187.8 ng·h/mL
[33]
  Tmax: 0.333 h
[34]
  Cmax: 39.8 ng/mL
[35]
  AUC/dose: 0.2 ng·h/mL
[36]
  Tmax: 0.583 h
[37]
  Cmax: 1.7 ng/mL
[38]
  Vd: 770.8 L/kg
[39]
  MRT: 6.7 h
[40]
  AUC/dose: 7.4 ng·h/mL
[41]
  Tmax: 5 min
[42]
  Cmax: 10.3 ng/mL
[43]
  Vd: 9.3 L/kg
[44]
  MRT: 0.9 h
[45]
  half-life: 0.85 h
[46]
  AUC/dose: 132 ng·h/mL
[47]
  Vd: 3024.2 L/kg
[48]
  MRT: 3.4 h
[49]
  AUC/dose: 1.2 ng·h/mL
[50]
  Tmax: 5 min
[51]
  Vd: 1965.9 L/kg
[52]
  Cmax: 8.1 ng/mL
[53]
  half-life: 4.5 h
[54]
  MRT: 6.9 h
[55]
  AUC/dose: 2.8 ng·h/mL
[56]
  Tmax: 5 min
[57]
  Cmax: 8.1 ng/mL
[58]
  Vd: 1660.6 L/kg
[59]
  MRT: 44.2 h

Source: ChEMBL document CHEMBL3045862, “PRE-CLINICAL AND CLINICAL PHARMACOKINETICS OF THE DIASTEREOMERS OF ARTEETHER, A POTENT ANTIMALARIAL” (Med Chem Res, 2004)
